# Data reported in patent US20260001871A1, “TRIAZOLE DERIVATIVES AS MODULATORS OF MAS-RELATED G-PROTEIN RECEPTOR D” (ESCIENT PHARMACEUTICALS, INC., priority 2022, published 2026).
# Target: human MRGPRD (Homo sapiens, UniProt Q8TDS7)
# Assay: MRGPRD antagonist activity, IP-One HTRF assay in CHO cells stably expressing human MRGPRD (versus 100 μM β-Alanine agonist)
# Format: cell-based
# How it was run: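 CHO cells stably expressing human MRGPRD, plated overnight at 37 °C, were treated with antagonist plus agonist in Tris-HCl/NaCl/LiCl buffer pH 8, incubated 1 h at 37 °C then 1 h at room temperature. IP-1 accumulation read by HTRF; IC50 and percent antagonism of maximum efficacy averaged, SEM reported.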
# human MRGPRD, sequence (Q8TDS7 whole entry): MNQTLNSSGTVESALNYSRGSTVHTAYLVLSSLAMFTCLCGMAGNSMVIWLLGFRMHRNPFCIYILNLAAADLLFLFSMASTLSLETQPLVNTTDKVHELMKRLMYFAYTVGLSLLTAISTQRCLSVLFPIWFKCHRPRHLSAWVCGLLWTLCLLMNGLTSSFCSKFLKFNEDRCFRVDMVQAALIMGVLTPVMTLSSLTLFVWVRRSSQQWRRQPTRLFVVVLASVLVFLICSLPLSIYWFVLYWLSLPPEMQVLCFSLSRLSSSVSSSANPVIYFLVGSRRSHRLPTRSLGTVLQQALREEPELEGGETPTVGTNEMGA
row,Compound,IC50 [nM]
1,Cc1nn(C)c(C)c1-c1ccc(-n2nnc(C(=O)NC3(c4cccnc4)CC3)c2C(C)C)cc1 [Compound 18-23],100 to 500
2,N#Cc1c[nH]nc1-c1ccc(-n2nnc(C(=O)Nc3ccncc3)c2C2CC2)cc1 [Compound 7-143],500 to 1000
3,Cc1nn(C)c(C)c1-c1cccc(-n2nnc(C(=O)Nc3ccncc3)c2C2CC2)c1 [Compound 7-325],1000 to 3000
4,Cc1nn(C)c(C)c1-c1ccc(-n2nnc(C(=O)Nc3ccncc3)c2C2CC2)cn1 [Compound 7-232],100 to 500
5,N#CCc1ccc(-c2cccc(-n3nnc(C(=O)NC4(c5cccnc5)CC4)c3C3CC3)c2)cc1 [Compound 18-21],1000 to 3000
6,O=C(Nc1ccncc1)c1nnn(-c2ccc(-c3cc(CO)[nH]n3)cc2)c1C1CC1 [Compound 7-211],1000 to 3000
7,Cc1ccc(C2(NC(=O)c3nnn(-c4ccc(-c5ccc(C#N)cc5C)cc4)c3C3CC3)CC2)cn1 [Compound 9-22],100 to 500
8,Cc1nn(C)c(CO)c1-c1ccc(-n2nnc(C(=O)Nc3ccncc3)c2C2CC2)cc1 [Compound 7-133],500 to 1000
9,O=C(Nc1cnn(C(F)(F)F)c1)c1nnn(-c2ccc(-c3ccccc3)cc2)c1C1CC1 [Compound 14-80],> 3000
10,Cc1ccc(CNC(=O)c2nnn(-c3cccc(-c4cnn(C5CC5)c4)c3)c2C2CC2)cn1 [Compound 7-333],> 3000
11,"CCc1cc(-n2nnc(C(=O)Nc3ccncc3)c2C2CC2)ccc1C [Compound 5-4, 5-cyclopropyl-1-(3-ethyl-4-methylphenyl)-N-(pyridin-4-yl)-1H-1,2,3-triazole-4-carboxamide]",500 to 1000
12,Cc1ccc(-n2nnc(C(=O)Nc3ccncc3)c2C2CC2)cc1-c1ccccc1 [Compound 5-7],1000 to 3000
13,Cc1cc(-c2ccccc2)ccc1-n1nnc(C(=O)Nc2ccncc2)c1C1CC1 [Compound 7-257],500 to 1000
14,CC(C)(C)c1c(C(=O)Nc2ccncc2)nnn1-c1ccc(-c2ccccc2)cc1 [Compound 4-12],1000 to 3000
15,Cc1c2c(NC(=O)c3nnn(-c4ccc(-c5ccccc5)cc4)c3C3CC3)nccc2nn1C [Compound 14-39],1000 to 3000
16,Cc1ccc(-n2nnc(C(=O)Nc3ccncc3F)c2C2CC2)cc1 [Compound 1-9],1000 to 3000
17,COc1cccc(-n2nnc(C(=O)Nc3ccncc3)c2C2CC2)c1 [Compound 3-4],1000 to 3000
18,CCn1nc(C)c(-c2ccc(-n3nnc(C(=O)NCc4ccc(C)nc4)c3C3CC3)cc2)c1C [Compound 9-10],100 to 500
19,COc1cc(C#N)ccc1-c1ccc(-n2nnc(C(=O)NC3(c4cncc(Cl)c4)CC3)c2C2CC2)cc1 [Compound 18-15],500 to 1000
20,CC(C)n1nccc1-c1ccc(-n2nnc(C(=O)Nc3ccncc3)c2C2CC2)cc1 [Compound 7-106],100 to 500
21,Cc1nn(C(F)F)cc1-c1ccc(-n2nnc(C(=O)Nc3ccncc3)c2C2CC2)cc1 [Compound 7-118],500 to 1000
22,COc1ccccc1CCNC(=O)c1nnn(-c2ccc(-c3ccccc3)cc2)c1C1CC1 [Compound 14-1],> 3000
23,CCn1nc(C)c(-c2ccc(-n3nnc(C(=O)NCc4cccnc4)c3C3CC3)cc2)c1C [Compound 9-25],100 to 500
24,CCn1cc(CNC(=O)c2nnn(-c3ccc(-c4ccccc4)cc3)c2C2CC2)cn1 [Compound 14-31],1000 to 3000
25,CC(NC(=O)c1nnn(-c2ccc(-c3ccc(C#N)c(F)c3)cc2)c1C1CC1)c1ccn(C)n1 (centres unmarked) [Compound 15-7],1000 to 3000
26,O=C(NCc1cscn1)c1nnn(-c2ccc(-c3ccccc3)cc2)c1C1CC1 [Compound 14-11],> 3000
27,COc1ccc(-c2ccc(-n3nnc(C(=O)Nc4ccncc4)c3C3CC3)cc2)c(C)c1 [Compound 7-34],100 to 500

row,Compound,IC50 [nM]
1,CCc1ncccc1C1(NC(=O)c2nnn(-c3ccc(-c4ccc(C#N)cc4)cc3)c2C2CC2)CC1 [Compound 15-18],1000 to 3000
2,O=C(Nc1ccncc1)c1nnn(-c2ccc(-c3ccccc3)cc2)c1C1CC1 [Compound 2-3],500 to 1000
3,CCn1cc(CNC(=O)c2nnn(-c3ccc(-c4cccc(C#N)c4)cc3)c2C2CC2)cn1 [Compound 15-15],1000 to 3000
4,O=C(Nc1ccncc1)c1nnn(-c2cccc(-c3cnn(C4CC4)c3)c2)c1C1CC1 [Compound 7-314],1000 to 3000
5,Cc1ccc(CNC(=O)c2nnn(-c3cccc(-c4ccn(C)n4)c3)c2C2CC2)cn1 [Compound 7-332],> 3000
6,O=C(Nc1ccncc1)c1nnn(-c2ccc(-c3cccc(OC(F)(F)F)c3)cc2)c1C1CC1 [Compound 7-162],1000 to 3000
7,CCn1nc(C)c(-c2ccc(-n3nnc(C(=O)NCc4cncc(C)c4)c3C3CC3)cc2)c1C [Compound 9-19],100 to 500
8,O=C(Nc1ccncc1)c1nnn(CC(F)(F)F)c1C1CC1 [Compound 6-3],500 to 1000
9,Cc1cc(-c2ccc(-n3nnc(C(=O)Nc4ccncc4)c3C3CC3)cc2)sn1 [Compound 7-191],1000 to 3000
10,"Cc1cc(NC(=O)c2nnn(C3CC=C(c4c(C)nn(C)c4C)CC3)c2C2CC2)ccn1 (centres unmarked) [Compound 12-1, 5-cyclopropyl-N-(2-methylpyridin-4-yl)-1-(4-(1,3,5-trimethyl-1H-pyrazol-4-yl)cyclohex-3-en-1-yl)-1H-1,2,3-triazole-4-carboxamide]",100 to 500
11,CC(C)c1c(C(=O)NC2(c3cccnc3)CC2)nnn1-c1ccc(-c2ccccc2)cc1 [Compound 18-30],> 3000
12,Cc1cc(NC(=O)c2nnn(-c3ccc(-c4c(C)nn5cccnc45)cc3)c2C2CC2)ccn1 [Compound 10-3],< 100
13,CCn1cc(CNC(=O)c2nnn(-c3ccc(-c4ccc(C#N)c(F)c4)cc3)c2C2CC2)cn1 [Compound 16-4],100 to 500
14,O=C(NC1CCSCC1)c1nnn(-c2ccc(-c3ccccc3)cc2)c1C1CC1 [Compound 14-30],1000 to 3000
15,O=C(Nc1ccncc1)c1nnn(-c2ccc(-c3ccccc3OC(F)(F)F)cc2)c1C1CC1 [Compound 7-186],1000 to 3000
16,CN(C)c1ccc(-c2ccc(-n3nnc(C(=O)Nc4ccncc4)c3C3CC3)cc2)cc1 [Compound 7-98],100 to 500
17,Cn1nc(-c2ccc(-n3nnc(C(=O)Nc4ccncc4)c3C3CC3)cc2)cc1-c1ccccc1 [Compound 7-111],100 to 500
18,CCc1cc(NC(=O)c2nnn(-c3ccc(-c4c(C)nn(-c5ccccc5)c4C)cc3)c2C2CC2)ccn1 [Compound 9-3],< 100
19,Cc1cc(NC(=O)c2nnn(-c3ccc(-c4c(C)nn5ccccc45)cc3)c2C(C)C)ccn1 [Compound 10-12],100 to 500
20,Cc1ccc(CNC(=O)c2nnn(-c3ccc(-c4ccc(C#N)cc4C)cc3)c2C2CC2)cn1 [Compound 7-95],100 to 500
21,Cc1cn2c(NC(=O)c3nnn(-c4ccc(-c5ccccc5)cc4)c3C3CC3)cccc2n1 [Compound 14-66],1000 to 3000
22,Cc1ccc(-n2nnc(C(=O)Nc3ccnc(F)c3)c2C2CC2)cc1 [Compound 1-7],500 to 1000
23,"CCc1cccc(-n2nnc(C(=O)Nc3ccncc3)c2C2CC2)c1 [Compound 3-1, 5-cyclopropyl-1-(3-ethylphenyl)-N-(pyridin-4-yl)-1H-1,2,3-triazole-4-carboxamide]",500 to 1000
24,CCn1nc(C)c(-c2ccc(-n3nnc(C(=O)Nc4ccnc(C)c4)c3C3CC3)c(F)c2)c1C [Compound 7-219],< 100
25,Cc1nn(C)c(C)c1-c1ccc(-n2nnc(C(=O)NC3(c4cccnc4)CC3)c2C2CC2)cc1 [Compound 18-17],1000 to 3000
26,CCn1cc(CNC(=O)c2nnn(-c3ccc(-c4ccc(F)cc4)cc3)c2C2CC2)cn1 [Compound 17-7],1000 to 3000
